From PubChem BioAssay AID1259407 (Chemical Carcinogenesis Research Information System (CCRIS), 2018)
Calls of active or inactive are those of the source. No rule for the calls is given here.

System: CCRIS mutagenicity, Ames/micronucleus/aberration tests
Assay: CCRIS mutagenicity studies
[1] = Test System: AMES SALMONELLA TYPHIMURIUM, Strain/Indicator: TA98, Metabolic Activation: NONE, Method: STANDARD PLATE
[2] = Test System: AMES SALMONELLA TYPHIMURIUM, Strain/Indicator: TA98, Metabolic Activation: RAT, LIVER, S-9, AROCLOR 1254, Method: STANDARD PLATE
[3] = Test System: AMES SALMONELLA TYPHIMURIUM, Strain/Indicator: TA100, Metabolic Activation: NONE, Method: STANDARD PLATE
[4] = Test System: AMES SALMONELLA TYPHIMURIUM, Strain/Indicator: TA100, Metabolic Activation: RAT, LIVER, S-9, AROCLOR 1254, Method: STANDARD PLATE
[5] = Test System: AMES SALMONELLA TYPHIMURIUM, Strain/Indicator: TA100, Metabolic Activation: NONE, Method: PREINCUBATION
[6] = Test System: AMES SALMONELLA TYPHIMURIUM, Strain/Indicator: TA98, Metabolic Activation: NONE, Method: PREINCUBATION

Measured: mutagenic call

O=[N+]([O-])O
inactive: Test System: AMES SALMONELLA TYPHIMURIUM, Strain/Indicator: TA97, Metabolic Activation: NONE, Method: PREINCUBATION inactive; negative | Test System: AMES SALMONELLA TYPHIMURIUM, Strain/Indicator: TA97, Metabolic Activation: S-9, Method: PREINCUBATION inactive; negative | Test System: AMES SALMONELLA TYPHIMURIUM, Strain/Indicator: TA97A, Metabolic Activation: NONE, Method: PREINCUBATION inactive; negative | Test System: AMES SALMONELLA TYPHIMURIUM, Strain/Indicator: TA97A, Metabolic Activation: NONE, Method: STANDARD PLATE inactive; negative | Test System: AMES SALMONELLA TYPHIMURIUM, Strain/Indicator: TA97A, Metabolic Activation: RAT, LIVER, S-9, PHENOBARBITAL AND BETA-NAPHTHOFLAVONE, Method: PREINCUBATION inactive; negative | Test System: AMES SALMONELLA TYPHIMURIUM, Strain/Indicator: TA97A, Metabolic Activation: RAT, LIVER, S-9, PHENOBARBITAL AND BETA-NAPHTHOFLAVONE, Method: STANDARD PLATE inactive; negative | [1] inactive; negative | [2] inactive; negative | Test System: AMES SALMONELLA TYPHIMURIUM, Strain/Indicator: TA98, Metabolic Activation: RAT, LIVER, S-9, PHENOBARBITAL AND BETA-NAPHTHOFLAVONE, Method: PREINCUBATION inactive; negative | Test System: AMES SALMONELLA TYPHIMURIUM, Strain/Indicator: TA98, Metabolic Activation: RAT, LIVER, S-9, PHENOBARBITAL AND BETA-NAPHTHOFLAVONE, Method: STANDARD PLATE inactive; negative | [3] inactive; negative | [4] inactive; negative | Test System: AMES SALMONELLA TYPHIMURIUM, Strain/Indicator: TA100, Metabolic Activation: RAT, LIVER, S-9, PHENOBARBITAL AND BETA-NAPHTHOFLAVONE, Method: PREINCUBATION inactive; negative | Test System: AMES SALMONELLA TYPHIMURIUM, Strain/Indicator: TA100, Metabolic Activation: RAT, LIVER, S-9, PHENOBARBITAL AND BETA-NAPHTHOFLAVONE, Method: STANDARD PLATE inactive; negative | Test System: AMES SALMONELLA TYPHIMURIUM, Strain/Indicator: TA102, Metabolic Activation: NONE, Method: PREINCUBATION inactive; negative | Test System: AMES SALMONELLA TYPHIMURIUM, Strain/Indicator: TA102, Metabolic Activation: S-9, Method: PREINCUBATION inactive; negative | Test System: AMES SALMONELLA TYPHIMURIUM, Strain/Indicator: TA102C, Metabolic Activation: NONE, Method: PREINCUBATION inactive; negative | Test System: AMES SALMONELLA TYPHIMURIUM, Strain/Indicator: TA102C, Metabolic Activation: NONE, Method: STANDARD PLATE inactive; negative | Test System: AMES SALMONELLA TYPHIMURIUM, Strain/Indicator: TA102C, Metabolic Activation: RAT, LIVER, S-9, PHENOBARBITAL AND BETA-NAPHTHOFLAVONE, Method: PREINCUBATION inactive; negative | Test System: AMES SALMONELLA TYPHIMURIUM, Strain/Indicator: TA102C, Metabolic Activation: RAT, LIVER, S-9, PHENOBARBITAL AND BETA-NAPHTHOFLAVONE, Method: STANDARD PLATE inactive; negative | Test System: AMES SALMONELLA TYPHIMURIUM, Strain/Indicator: TA1535, Metabolic Activation: NONE, Method: PREINCUBATION inactive; negative | Test System: AMES SALMONELLA TYPHIMURIUM, Strain/Indicator: TA1535, Metabolic Activation: NONE, Method: STANDARD PLATE inactive; negative | Test System: AMES SALMONELLA TYPHIMURIUM, Strain/Indicator: TA1535, Metabolic Activation: RAT, LIVER, S-9, AROCLOR 1254, Method: STANDARD PLATE inactive; negative | Test System: AMES SALMONELLA TYPHIMURIUM, Strain/Indicator: TA1535, Metabolic Activation: RAT, LIVER, S-9, PHENOBARBITAL AND BETA-NAPHTHOFLAVONE, Method: PREINCUBATION inactive; negative | Test System: AMES SALMONELLA TYPHIMURIUM, Strain/Indicator: TA1535, Metabolic Activation: RAT, LIVER, S-9, PHENOBARBITAL AND BETA-NAPHTHOFLAVONE, Method: STANDARD PLATE inactive; negative | Test System: AMES SALMONELLA TYPHIMURIUM, Strain/Indicator: TA1537, Metabolic Activation: NONE, Method: PREINCUBATION inactive; negative | Test System: AMES SALMONELLA TYPHIMURIUM, Strain/Indicator: TA1537, Metabolic Activation: NONE, Method: STANDARD PLATE inactive; negative | Test System: AMES SALMONELLA TYPHIMURIUM, Strain/Indicator: TA1537, Metabolic Activation: RAT, LIVER, S-9, AROCLOR 1254, Method: STANDARD PLATE inactive; negative | Test System: AMES SALMONELLA TYPHIMURIUM, Strain/Indicator: TA1537, Metabolic Activation: RAT, LIVER, S-9, PHENOBARBITAL AND BETA-NAPHTHOFLAVONE, Method: PREINCUBATION inactive; negative | Test System: AMES SALMONELLA TYPHIMURIUM, Strain/Indicator: TA1537, Metabolic Activation: RAT, LIVER, S-9, PHENOBARBITAL AND BETA-NAPHTHOFLAVONE, Method: STANDARD PLATE inactive; negative | Test System: AMES SALMONELLA TYPHIMURIUM, Strain/Indicator: TA1538, Metabolic Activation: NONE, Method: PREINCUBATION inactive; negative | Test System: AMES SALMONELLA TYPHIMURIUM, Strain/Indicator: TA1538, Metabolic Activation: NONE, Method: STANDARD PLATE inactive; negative | Test System: AMES SALMONELLA TYPHIMURIUM, Strain/Indicator: TA1538, Metabolic Activation: RAT, LIVER, S-9, AROCLOR 1254, Method: STANDARD PLATE inactive; negative | Test System: AMES SALMONELLA TYPHIMURIUM, Strain/Indicator: TA1538, Metabolic Activation: RAT, LIVER, S-9, PHENOBARBITAL AND BETA-NAPHTHOFLAVONE, Method: PREINCUBATION inactive; negative | Test System: AMES SALMONELLA TYPHIMURIUM, Strain/Indicator: TA1538, Metabolic Activation: RAT, LIVER, S-9, PHENOBARBITAL AND BETA-NAPHTHOFLAVONE, Method: STANDARD PLATE inactive; negative | Test System: E. COLI, Strain/Indicator: WP2, Metabolic Activation: NONE, Method: STANDARD PLATE inactive; negative | Test System: E. COLI, Strain/Indicator: WP2, Metabolic Activation: RAT, LIVER, S-9, AROCLOR 1254, Method: STANDARD PLATE inactive; negative

N[C@@H](Cc1c[nH]c2ccc(O)cc12)C(=O)O
inactive: [5] inactive; negative

COc1cc(S(=O)(=O)O)c(C)cc1N=Nc1c(O)ccc2cc(S(=O)(=O)O)ccc12
inactive: [6] inactive; negative | [1] inactive; negative | Test System: AMES SALMONELLA TYPHIMURIUM, Strain/Indicator: TA98, Metabolic Activation: RAT LIVER S-9, AROCLOR 1254, Method: STANDARD PLATE inactive; negative | Test System: AMES SALMONELLA TYPHIMURIUM, Strain/Indicator: TA98, Metabolic Activation: S-9, Method: PREINCUBATION inactive; negative | [5] inactive; negative | [3] inactive; negative | Test System: AMES SALMONELLA TYPHIMURIUM, Strain/Indicator: TA100, Metabolic Activation: RAT LIVER S-9, AROCLOR 1254, Method: STANDARD PLATE inactive; negative | Test System: AMES SALMONELLA TYPHIMURIUM, Strain/Indicator: TA100, Metabolic Activation: S-9, Method: PREINCUBATION inactive; negative

CCN(CC)C(=S)SSC[C@H](NC(C)=O)C(=O)O
inactive: [6] inactive; negative | [1] inactive; negative | Test System: AMES SALMONELLA TYPHIMURIUM, Strain/Indicator: TA98, Metabolic Activation: RAT, LIVER, S-9, AROCLOR 1254, Method: PREINCUBATION inactive; negative | [2] inactive; negative | [5] inactive; negative | [3] inactive; negative | Test System: AMES SALMONELLA TYPHIMURIUM, Strain/Indicator: TA100, Metabolic Activation: RAT, LIVER, S-9, AROCLOR 1254, Method: PREINCUBATION inactive; negative | [4] inactive; negative
